Patent US20260262643A1, “HERBICIDAL BENZOXAZINES” (FMC CORPORATION, priority 2022, published 2026)

Assays:
pigweed, palmer [1] = experiment: Test C postemergence; assay type: in vivo, Amaranthus palmeri; settings: 10 days
Outline: (§1)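 Soil-applied (pre) and foliar (post, 1–2 leaf, 2–10 cm) sprays; surfactant-containing non-phytotoxic solvent vehicle; loam/sand substrate. Readout: visual % control at 10 d, greenhouse, versus untreated.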

green foxtail [2] = experiment: Test C postemergence; assay type: in vivo, Setaria viridis; settings: 10 days
Outline: as §1

pigweed, palmer [3] = experiment: Test C preemergence; assay type: in vivo, Amaranthus palmeri; settings: 0 to 100 scale (0 no effect, 100 complete control); for Pigweed, Palmer plant response rating: preemergence
Outline: as §1

ragweed [4] = experiment: Test C preemergence; assay type: in vivo, Ambrosia artemisiifolia; settings: 0 to 100 scale (0 no effect, 100 complete control); for Ragweed plant response rating: preemergence
Outline: as §1

corn [5] = experiment: Test C preemergence; assay type: in vivo, Zea mays; settings: 0 to 100 scale (0 no effect, 100 complete control); for Corn plant response rating: preemergence
Outline: as §1

barnyardgrass [6] = experiment: Test D flooded paddy test; assay type: in vivo, Echinochloa crus-galli; settings: 250 g ai/ha, applied to paddy water, visual rating after 13 to 14 days, scale 0 to 100 (0 no effect, 100 complete control)
Outline: (§2)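 Compounds go straight into paddy water over 2-leaf plants in pots flooded to 3 cm. Greenhouse holding lasts 13 to 14 days. Injury is scored by eye against controls from 0 (none) to 100 (complete control).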

galium = experiment: Test C postemergence; assay type: in vivo, Galium aparine; settings: 10 days
Outline: as §1

kochia [7] = experiment: Test C preemergence; assay type: in vivo, Bassia scoparia; settings: 0 to 100 scale (0 no effect, 100 complete control); for Kochia plant response rating: preemergence
Outline: as §1

soybean [8] = experiment: Test C postemergence; assay type: in vivo, Glycine max; settings: 10 days
Outline: as §1

ragweed [9] = experiment: Test C postemergence; assay type: in vivo, Ambrosia artemisiifolia; settings: 10 days
Outline: as §1

blackgrass [10] = experiment: Test C postemergence; assay type: in vivo, Alopecurus myosuroides; settings: 10 days
Outline: as §1

corn [11] = experiment: Test C postemergence; assay type: in vivo, Zea mays; settings: 10 days
Outline: as §1

oat, wild [12] = experiment: Test C postemergence; assay type: in vivo, Avena fatua; settings: 10 days
Outline: as §1

soybean [13] = experiment: Test C preemergence; assay type: in vivo, Glycine max; settings: 0 to 100 scale (0 no effect, 100 complete control); for Soybean plant response rating: preemergence
Outline: as §1

ryegrass, Italian [14] = experiment: Test C preemergence; assay type: in vivo, Lolium multiflorum; settings: 0 to 100 scale (0 no effect, 100 complete control); for Ryegrass, Italian plant response rating: preemergence
Outline: as §1

ryegrass, Italian [15] = experiment: Test C postemergence; assay type: in vivo, Lolium multiflorum; settings: 10 days
Outline: as §1

barnyardgrass [16] = experiment: Test C postemergence; assay type: in vivo, Echinochloa crusgalli; settings: 10 days
Outline: as §1

barnyardgrass [17] = experiment: Test C preemergence; assay type: in vivo, Echinochloa crusgalli; settings: 0 to 100 scale (0 no effect, 100 complete control); for Barnyardgrass plant response rating: preemergence
Outline: as §1

horseweed = experiment: Test C postemergence; assay type: in vivo, Erigeron canadensis; settings: 10 days
Outline: as §1

wheat [18] = experiment: Test C preemergence; assay type: in vivo, Triticum aestivum; settings: 0 to 100 scale (0 no effect, 100 complete control); for Wheat plant response rating: preemergence
Outline: as §1

ducksalad = experiment: Test D flooded paddy test; assay type: in vivo, Heteranthera limosa; settings: 250 g ai/ha, applied to paddy water, visual rating after 13 to 14 days, scale 0 to 100 (0 no effect, 100 complete control)
Outline: as §2

sedge, umbrella = experiment: Test D flooded paddy test; assay type: in vivo, Cyperus difformis; settings: 250 g ai/ha, applied to paddy water, visual rating after 13 to 14 days, scale 0 to 100 (0 no effect, 100 complete control)
Outline: as §2

wheat [19] = experiment: Test C postemergence; assay type: in vivo, Triticum aestivum; settings: 10 days
Outline: as §1

rice = experiment: Test D flooded paddy test; assay type: in vivo, Oryza sativa; settings: 250 g ai/ha, applied to paddy water, visual rating after 13 to 14 days, scale 0 to 100 (0 no effect, 100 complete control)
Outline: as §2

green foxtail [20] = experiment: Test C preemergence; assay type: in vivo, Setaria viridis; settings: 0 to 100 scale (0 no effect, 100 complete control); for Foxtail, Green plant response rating: preemergence
Outline: as §1

oat, wild [21] = experiment: Test C preemergence; assay type: in vivo, Avena fatua; settings: 0 to 100 scale (0 no effect, 100 complete control); for Oat, Wild plant response rating: preemergence
Outline: as §1

kochia [22] = experiment: Test C postemergence; assay type: in vivo, Bassia scoparia; settings: 10 days
Outline: as §1

blackgrass [23] = experiment: Test C preemergence; assay type: in vivo, Alopecurus myosuroides; settings: 0 to 100 scale (0 no effect, 100 complete control); for Blackgrass plant response rating: preemergence
Outline: as §1

[24] = 125 g ai/ha, postemergence, 0 to 100 scale, 0 no effect, 100 complete control
[25] = Postemergence, 500 g ai/ha, visual 0 to 100 scale (0 no effect, 100 complete control)
[26] = Preemergence, 500 g ai/ha, visual rating after 10 days
[27] = 500 g ai/ha, postemergence, 0 to 100 scale (0 no effect, 100 complete control)

COc1ccc(-n2cncn2)cc1C(=O)N1C[C@H](C)Oc2c(Cl)cccc21 [Compound 241]
Plant response rating, Pigweed, Palmer (pigweed, palmer [1]; [24]): 70
Plant response rating, Pigweed, Palmer (pigweed, palmer [1]; [25]): 90
Plant response rating, Foxtail, Green (green foxtail [2]; [24]): 90
Plant response rating, Foxtail, Green (green foxtail [2]; [25]): 90
Plant response rating, Pigweed, Palmer (pigweed, palmer [3]; [26]): 100
Pigweed, Palmer plant response rating (pigweed, palmer [3]; Test C, 125 g ai/ha): 100
Plant response rating, Ragweed (ragweed [4]; [26]): 10
Ragweed plant response rating (ragweed [4]; Test C, 125 g ai/ha): 10
Plant response rating, Corn (corn [5]; [26]): 70
Corn plant response rating (corn [5]; Test C, 125 g ai/ha): 20
Plant response rating, Barnyardgrass (Flood) (barnyardgrass [6]): 50
Plant response rating, Galium (galium; [24]): 100
Plant response rating, Galium (galium; [25]): 100
Plant response rating, Kochia (kochia [7]; [26]): 80
Kochia plant response rating (kochia [7]; Test C, 125 g ai/ha): 20
Plant response rating, Soybean (soybean [8]; [24]): 100
Plant response rating, Soybean (soybean [8]; [25]): 100
Plant response rating, Ragweed (ragweed [9]; [24]): 50
Plant response rating, Ragweed (ragweed [9]; [25]): 90
Plant response rating, Blackgrass (blackgrass [10]; [24]): 90
Plant response rating, Blackgrass (blackgrass [10]; [25]): 100
Plant response rating, Corn (corn [11]; [24]): 60
Plant response rating, Corn (corn [11]; [25]): 100
Plant response rating, Oat, Wild (oat, wild [12]; [24]): 60
Plant response rating, Oat, Wild (oat, wild [12]; [25]): 90
Plant response rating, Soybean (soybean [13]; [26]): 100
Soybean plant response rating (soybean [13]; Test C, 125 g ai/ha): 100
Plant response rating, Ryegrass, Italian (ryegrass, Italian [14]; [26]): 90
Ryegrass, Italian plant response rating (ryegrass, Italian [14]; Test C, 125 g ai/ha): 90
Plant response rating, Ryegrass, Italian (ryegrass, Italian [15]; [24]): 90
Plant response rating, Ryegrass, Italian (ryegrass, Italian [15]; [25]): 100
Plant response rating, Barnyardgrass (barnyardgrass [16]; [24]): 100
Plant response rating, Barnyardgrass (barnyardgrass [16]; [25]): 100
Plant response rating, Barnyardgrass (barnyardgrass [17]; [26]): 100
Barnyardgrass plant response rating (barnyardgrass [17]; Test C, 125 g ai/ha): 90
Plant response rating, Horseweed (horseweed; [24]): 50
Plant response rating, Horseweed (horseweed; [25]): 90
Plant response rating, Wheat (wheat [18]; [26]): 90
Wheat plant response rating (wheat [18]; Test C, 125 g ai/ha): 60
Plant response rating, Ducksalad (Flood) (ducksalad): 90
Plant response rating, Sedge, Umbrella (Flood) (sedge, umbrella): 100
Plant response rating, Wheat (wheat [19]; [24]): 50
Plant response rating, Wheat (wheat [19]; [25]): 90
Plant response rating, Rice (Flood) (rice): 15
Plant response rating, Foxtail, Green (green foxtail [20]; [26]): 100
Foxtail, Green plant response rating (green foxtail [20]; Test C, 125 g ai/ha): 100
Plant response rating, Oat, Wild (oat, wild [21]; [26]): 90
Oat, Wild plant response rating (oat, wild [21]; Test C, 125 g ai/ha): 50
Plant response rating, Kochia (kochia [22]; [24]): 20
Plant response rating, Kochia (kochia [22]; [25]): 70
Plant response rating, Blackgrass (blackgrass [23]; [26]): 70
Blackgrass plant response rating (blackgrass [23]; Test C, 125 g ai/ha): 50

CC(C)c1ncn(-c2cccc(C(=O)N3CC(C(F)(F)F)Oc4c(Cl)cccc43)c2)n1 (single isomer, unassigned) [Compound 289]
Plant response rating, Pigweed, Palmer (pigweed, palmer [1]; [24]): 90
Plant response rating, Pigweed, Palmer (pigweed, palmer [1]; [27]): 100
Plant response rating, Foxtail, Green (green foxtail [2]; [24]): 20
Plant response rating, Foxtail, Green (green foxtail [2]; [27]): 90
Pigweed, Palmer plant response rating (pigweed, palmer [3]; 500 g ai/ha): 100
Pigweed, Palmer plant response rating (pigweed, palmer [3]; Test C, 125 g ai/ha): 100
Ragweed plant response rating (ragweed [4]; 500 g ai/ha): 70
Ragweed plant response rating (ragweed [4]; Test C, 125 g ai/ha): 50
Corn plant response rating (corn [5]; 500 g ai/ha): 20
Corn plant response rating (corn [5]; Test C, 125 g ai/ha): 10
Plant response rating, Barnyardgrass (Flood) (barnyardgrass [6]): 50
Plant response rating, Galium (galium; [24]): 100
Plant response rating, Galium (galium; [27]): 100
Kochia plant response rating (kochia [7]; 500 g ai/ha): 100
Kochia plant response rating (kochia [7]; Test C, 125 g ai/ha): 70
Plant response rating, Soybean (soybean [8]; [24]): 100
Plant response rating, Soybean (soybean [8]; [27]): 90
Plant response rating, Ragweed (ragweed [9]; [24]): 60
Plant response rating, Ragweed (ragweed [9]; [27]): 70
Plant response rating, Blackgrass (blackgrass [10]; [24]): 30
Plant response rating, Blackgrass (blackgrass [10]; [27]): 100
Plant response rating, Corn (corn [11]; [24]): 20
Plant response rating, Corn (corn [11]; [27]): 30
Plant response rating, Oat, Wild (oat, wild [12]; [24]): 30
Plant response rating, Oat, Wild (oat, wild [12]; [27]): 60
Soybean plant response rating (soybean [13]; 500 g ai/ha): 90
Soybean plant response rating (soybean [13]; Test C, 125 g ai/ha): 90
Ryegrass, Italian plant response rating (ryegrass, Italian [14]; 500 g ai/ha): 100
Ryegrass, Italian plant response rating (ryegrass, Italian [14]; Test C, 125 g ai/ha): 100
Plant response rating, Ryegrass, Italian (ryegrass, Italian [15]; [24]): 40
Plant response rating, Ryegrass, Italian (ryegrass, Italian [15]; [27]): 90
Plant response rating, Barnyardgrass (barnyardgrass [16]; [24]): 30
Plant response rating, Barnyardgrass (barnyardgrass [16]; [27]): 60
Barnyardgrass plant response rating (barnyardgrass [17]; 500 g ai/ha): 100
Barnyardgrass plant response rating (barnyardgrass [17]; Test C, 125 g ai/ha): 60
Plant response rating, Horseweed (horseweed; [24]): 0
Plant response rating, Horseweed (horseweed; [27]): 40
Wheat plant response rating (wheat [18]; 500 g ai/ha): 50
Wheat plant response rating (wheat [18]; Test C, 125 g ai/ha): 30
Plant response rating, Ducksalad (Flood) (ducksalad): 65
Plant response rating, Sedge, Umbrella (Flood) (sedge, umbrella): 100
Plant response rating, Wheat (wheat [19]; [24]): 20
Plant response rating, Wheat (wheat [19]; [27]): 40
Plant response rating, Rice (Flood) (rice): 10
Foxtail, Green plant response rating (green foxtail [20]; 500 g ai/ha): 100
Foxtail, Green plant response rating (green foxtail [20]; Test C, 125 g ai/ha): 100
Oat, Wild plant response rating (oat, wild [21]; 500 g ai/ha): 90
Oat, Wild plant response rating (oat, wild [21]; Test C, 125 g ai/ha): 80
Plant response rating, Kochia (kochia [22]; [24]): 80
Plant response rating, Kochia (kochia [22]; [27]): 90
Blackgrass plant response rating (blackgrass [23]; 500 g ai/ha): 90
Blackgrass plant response rating (blackgrass [23]; Test C, 125 g ai/ha): 80
